Where two headings read alike, the source gives them in different places.
Experiments:
HCV NS5B protein = biological target: T1, HCV NS5B protein (Hepatitis C virus genotype 1b, UniProt P26663); assay: biochemical; conditions: for IC50: in vitro enzyme activity, 2'-O-Me-CTP positive control, read-out: NS5B inhibition assay IC50
T1 construct: Purified HCV NS5B protein and HCV (-) 3’ T RNA template were obtained as described previously
Experimental: The inhibitory effects of the tested reagents on in vitro NS5B activity were determined by NS5B-catalyzed RNA synthesis assay as described previously. Purified HCV NS5B protein and HCV (-) 3’ T RNA template were obtained as described previously. The tested reagents were added at a variety of concentrations in 50 μl reaction mixture consisting of 20 mM HEPES (pH 8.0), 1.5 mM MnCl2, 100 mM ammonium acetate, 1 mM DTT, 500 μM GTP, 250 μM each of CTP, ATP and UTP, 40U of RNasin (Biostar, Canada), 2 μg/ml HCV (-) 3’ TRNA template and 300 ng purified NS5B protein. After 2 h at 30°C, the reaction was stopped by 100 mM EDTA and RNA was purified using the RNaid Kit (Qbiogene). To determine NS5B-catalyzed RNA synthesis, real-time RT-PCR was performed. cDNA was synthesized using AMV-reverse transcriptase (TAKARA, Japan) and the primer targeted to NS5B-catalyzed RNA product (5’-[…]-3’) and then digested with RNAase. PCR was carried out using RNA product–specific primers (forward, […], reverse 5’-[…]-3’, probe, 5’-[…]-3’) and TaqMan RT-PCR Kit according to the instruction. 50% inhibitory concentrations (IC50) were calculated using Statistical SPSS program version 11.5 by probit analysis of regression.

[1] = Cell proliferation assay (WST-1); assay type: cell-based; conditions: human
Experimental: (§1) Huh7.5.1 cells were seeded in 96-well plates at a density of 2 × 10^4 cells per well overnight. Cells were incubated with serial diluted compounds for 48 h. The viability of Huh7.5.1 cells was determined in 96-well tissue culture plates using the cell proliferation reagent WST-1 (Roche), and absorbance (OD450 / reference OD630) was measured to detect the cytotoxicity of compounds according to the manufacturer’s protocol for the Cell Proliferation Reagent WST-1. CC50 is the concentration of the compound at which the cell growth was inhibited by 50%. The values of CC50 were plotted by the GraphPad Prism 5 software.

HCV (JFH-1, genotype 2a) [2] = assay: microbe, parasite or virus in culture; assay type: cell-based, Hepatitis C virus; conditions: for EC50: luminescence reduced by 50% in Huh7.5.1 cells, mean of three experiments, read-out: Anti-HCV activity virus assay JFH1 EC50; for SI (selective index): ratio of CC50 to EC50
Text: The HCV virus assay was constructed by using the method developed as previously described, albeit with a slight modification. Briefly, the plasmid of pRluc-JFH-1 was constructed as following. Based on the plasmid of pJFH-1, as a gift from Apath,L.L.C., a humanized Renilla luciferase reporter gene was introduced into the C-terminus of NS5A in the JFH-1 genome. The plasmid phRluc-JFH-1 was made via digestion with the XbaI restriction enzyme and used as a template for RNA transcription. The virus transcripts were prepared in vitro by using the Ambion MEGAscript Kits, and then 10 μg of RNA was mixed with […] of Huh7.5.1, which was gifted by Jin Zhong (Institute Pasteur of Shanghai, Chinese Academy of Science), at a concentration of 1×10^7 cells/ml. After electroporation, the Huh7.5.1 cells containing virus transcripts were seeded in a 10-cm dish. After the cells were cultured for 4 days, the supernatant was collected and filtered to obtain the stock solution of the hRluc-JFH-1 virus. To obtain the virus titer, the virus stocks were diluted at a gradient of 1:10, and the Huh7.5.1 cells were incubated for 48h at 37°C. Then, the cells were harvested, and the luminescence was detected via the manufacturer’s protocol of the Renilla-Glo™ Luciferase Assay System (Promega).
Huh7.5.1 cells were seeded in 96-well plates at a density of 2 ×10^4 cells per well at 37°C overnight. All of the synthetic compounds were diluted with DMSO to 10 mM of stock solution. The initial concentration of compounds was 20 μM and then diluted at a gradient of 1:4 to concentrations ranging from 20 μM to 0.02 μM, containing 0.5% DMSO. For the HCVcc system, serial diluted compounds were mixed with a certain titer of HCVcc-hRluc-JFH1 virus, and the final concentration of HCVcc-hRluc-JFH1 virus titer was diluted to the numbers of relative luminescence units (RLU) ranging from 20,000 to 50,000 RLU and then added to the Huh7.5.1 cells. Then, the cells were cultured for 2 days at 37°Cand harvested. The luminescence was detected via the manufacturer’s protocol of the Renilla-Glo™ Luciferase Assay System. EC50 is the concentration of the compound at which the HCV luminescence level in the Huh7.5.1 cells is reduced by 50%. The values of EC50 were plotted by the GraphPad Prism 5 software.

Huh7.5.1 cells = assay: Cell proliferation assay (WST-1); assay type: cell-based
Experimental: as §1

NS5B protein = NS5B protein (Hepatitis C virus genotype 1b, UniProt P26663); assay: biochemical; assay type: binding; conditions: for Kd: dissociation equilibrium constant, NS5B immobilized on CM5 chip, read-out: SPR on NS5B KD
Sequence of NS5B protein (P26663 2420-3010): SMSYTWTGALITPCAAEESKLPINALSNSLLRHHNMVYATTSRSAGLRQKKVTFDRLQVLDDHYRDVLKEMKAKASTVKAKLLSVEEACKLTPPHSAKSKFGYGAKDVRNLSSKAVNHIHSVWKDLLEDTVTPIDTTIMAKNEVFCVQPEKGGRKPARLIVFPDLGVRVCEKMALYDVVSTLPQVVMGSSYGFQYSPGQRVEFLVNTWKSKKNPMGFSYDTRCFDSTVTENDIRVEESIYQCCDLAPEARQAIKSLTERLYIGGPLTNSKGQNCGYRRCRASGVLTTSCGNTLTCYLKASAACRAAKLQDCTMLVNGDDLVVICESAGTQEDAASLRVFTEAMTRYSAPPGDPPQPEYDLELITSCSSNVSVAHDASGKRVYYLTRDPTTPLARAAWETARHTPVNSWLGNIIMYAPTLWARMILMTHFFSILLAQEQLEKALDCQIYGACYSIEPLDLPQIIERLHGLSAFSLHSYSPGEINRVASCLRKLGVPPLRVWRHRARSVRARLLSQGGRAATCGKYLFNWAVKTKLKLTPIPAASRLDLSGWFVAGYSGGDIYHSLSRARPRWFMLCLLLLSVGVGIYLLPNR
Experimental: The SPR experiments were performed using a Biacore T200 optical biosensor (Biacore Life Sciences, GE Healthcare). The NS5B protein at 50 μg/ml prepared in buffer of 10 mM sodium acetate (pH 5.5) was immobilized by standard amine coupling to a CM5 biosensor chip. The compounds were injected for 60 s at a flow rate of 30 μL/min using in concentration series between 1 and 250 μM in running buffer (1 × PBS with 5% DMSO). The dissociation was monitored for 300 s. Raw data collected on an SPR biosensor were further processed to eliminate any artifacts such as nonspecific binding and discrepancies in buffer composition. All data processing and analysis was performed using the Biacore T200 Evaluation Software.

HCV (JFH-1, genotype 2a) [3] = assay type: cell-based, Hepatitis C virus; conditions: at a concentration of 12.5 μM
NS5B polymerase = conditions: S2 Table, validation set of the RF model; ref DOI in column Reference (DOI); cited from earlier work
[4] = Huh7.5.1 cells, 48 h, WST-1, mean of three experiments, read-out: CC50

T1 sequence (P26663 2420-3010): as above

Compound	IC50 (HCV NS5B protein) [µM]	CC50 at 48 h [1, 4] [µM]	EC50 (HCV (JFH-1, genotype 2a) [2]; Hepatitis C virus, Huh-7.5.1) [µM]	SI (selective index) (HCV (JFH-1, genotype 2a) [2])	Kd (NS5B protein) [µM]	also measured
Cc1ccc(N(Cc2cc3cccc(C)c3nc2O)S(=O)(=O)c2ccccc2)c(C)c1 [N5, N-(2,4-dimethylphenyl)-N-((8-methyl-2-oxo-1,2-dihydroquinolin-3-yl)methyl)benzenesulfonamide]	2.2	> 100	10.9			
CCC[C@H](NC(=O)[C@@H]1[C@H]2CCC[C@H]2CN1C(=O)[C@@H](NC(=O)[C@@H](NC(=O)c1cnccn1)C1CCCCC1)C(C)(C)C)C(=O)C(=O)NC1CC1 [telaprevir, reference compound]			0.02	>500		CC50 at 48 h [1]: > 10 µM
CC(C)OC(=O)[C@H](C)N[P@](=O)(OC[C@H]1O[C@@H](n2ccc(=O)[nH]c2=O)[C@](C)(F)[C@@H]1O)Oc1ccccc1 [PSI-7977, sofosbuvir, reference compound]		> 20	0.49	>40.82		
O=C(CSc1nc2ccccc2o1)Nc1cc(C(F)(F)F)cc(C(F)(F)F)c1 [N2]	3	51.3	1.61	32.1	4.67	cellular cytotoxicity (Huh7.5.1 cells; at a concentration of 12.5 μM): no cellular cytotoxicity; HCV virus titers suppressed (HCV (JFH-1, genotype 2a) [3]): ~99%
N-(8-fluoro-4-oxo-1,4-dihydroquinoline-3-carbonyl)-1,2-dimethyl-1H-imidazole-4-sulfonohydrazide [N3]	23.8				86.1	pIC50 (HCV NS5B protein; from NS5B inhibition IC50): 4.62; CC50 (Huh7.5.1 cells): > 100 µM; EC50 (HCV (JFH-1, genotype 2a) [2]): 21.3 µM; pKD (NS5B protein; from SPR KD): 4.06
Nc1cc(Cn2c(C(=O)NS(=O)(=O)c3ccc(O)cc3)c(-c3ccc[nH]c3=O)c3cc(Cl)ccc32)ccn1 [compound 137]						IC50 (NS5B polymerase): > 50 µM
COc1cc(C(=O)NNS(=O)(=O)c2ccccc2)cc(OCc2ccccc2)c1OC [N1]	3.63	> 100	> 12.5		62.9	
Cc1ccc(O)c(NC(=O)COc2ccc3c(=O)c(-c4ccccc4)c(C)oc3c2)c1 [N4]	2.01	> 100	> 12.5		123	

From paper PMC4742222, “Discovery of Novel Hepatitis C Virus NS5B Polymerase Inhibitors by Combining Random Forest, Multiple e-Pharmacophore Modeling and Docking” (PLoS ONE, 2016)
